Values of other authors as cited in patent publication US20180200208A1, “COMPOSITIONS FOR IMPROVING OR MAINTAINING MYOCARDIAL FUNCTION” (RepoCeuticals ApS, priority 2015, published 2018).

Experiments:
recombinant MT1 receptor = recombinant MT1 receptor (Homo sapiens, UniProt P48039); settings: relative to melatonin
recombinant MT2 receptor = biological target: T1, recombinant MT2 receptor (Homo sapiens, UniProt P49286); settings: relative to melatonin
T1 sequence (P49286 1-362): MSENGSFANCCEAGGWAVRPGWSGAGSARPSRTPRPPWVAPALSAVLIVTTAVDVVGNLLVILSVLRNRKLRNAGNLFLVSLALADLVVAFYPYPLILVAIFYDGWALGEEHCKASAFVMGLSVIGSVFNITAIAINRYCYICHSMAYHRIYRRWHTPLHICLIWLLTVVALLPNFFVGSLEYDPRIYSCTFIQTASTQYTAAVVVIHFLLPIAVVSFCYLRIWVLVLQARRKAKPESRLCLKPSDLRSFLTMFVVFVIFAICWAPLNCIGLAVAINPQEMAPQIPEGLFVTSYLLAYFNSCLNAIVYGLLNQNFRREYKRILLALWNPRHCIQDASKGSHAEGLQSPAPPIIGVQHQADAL

[1] = test system: patients with primary sleep disorders; settings: oral doses of up to 5 mg
[2] = at 2-8° C.

Sequence of recombinant MT1 receptor (P48039 whole entry): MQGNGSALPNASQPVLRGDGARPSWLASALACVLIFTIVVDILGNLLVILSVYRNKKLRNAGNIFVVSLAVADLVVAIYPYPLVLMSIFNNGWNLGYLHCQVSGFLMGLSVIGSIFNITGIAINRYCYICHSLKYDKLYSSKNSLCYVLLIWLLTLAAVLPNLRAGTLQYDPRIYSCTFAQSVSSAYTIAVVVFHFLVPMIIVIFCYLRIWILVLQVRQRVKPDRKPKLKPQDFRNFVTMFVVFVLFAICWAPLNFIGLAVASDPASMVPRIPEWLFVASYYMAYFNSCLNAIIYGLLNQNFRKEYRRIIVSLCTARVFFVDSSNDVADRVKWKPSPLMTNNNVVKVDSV

## COc1cc2c(CCNC(C)=O)c[nH]c2cc1O [6-OHM, 6-hydroxymelatonin]
Recombinant MT1 receptor
  affinity for recombinant MT1 receptor as % of that of melatonin: 20%
Recombinant MT2 receptor
  affinity for recombinant MT2 receptor as % of that of melatonin: 13%

## Oc1ccc(C=Cc2cc(O)cc(O)c2)cc1 [Resveratrol, resveratrol]
other
  solubility in ethanol, dimethyl sulfoxide and various oils: readily soluble
  solubility in water: almost insoluble in water

## O=C1C[C@@H](c2ccc(O)cc2)Oc2cc(O)cc(O)c21 [Naringenin, naringenin]
other
  solubility in ethanol, dimethyl sulfoxide and various oils: readily soluble
  solubility in water: almost insoluble in water

## CC(=O)NCCc1c[nH]c2ccc(O)cc12 [N-acetylserotonin]
Recombinant MT1 receptor
  affinity for recombinant MT1 receptor as % of that of melatonin: 0.14%
Recombinant MT2 receptor
  affinity for recombinant MT2 receptor as % of that of melatonin: 0.22%

## COC1=C(OC)C(=O)C(C/C=C(\C)CC/C=C(\C)CC/C=C(\C)CC/C=C(\C)CC/C=C(\C)CC/C=C(\C)CC/C=C(\C)CC/C=C(\C)CC/C=C(\C)CCC=C(C)C)=C(C)C1=O [Coenzyme Q10]
other
  solubility in ethanol, dimethyl sulfoxide and various oils: can be dissolved
  solubility in water: almost water-insoluble

## COc1ccc2[nH]cc(CCNC(C)=O)c2c1 [Melatonin, N-acetyl-5-methoxytryptamine]
[1]
  increase of sleep duration (average): 7 to 8 min
  reduction of sleep latency (average): 7 to 8 min
other
  solubility in DMSO: soluble in DMSO
  solubility in water: insoluble in water

## COc1ccc(NC=O)c(C(=O)CCNC(C)=O)c1 [AFMK, N^1-acetyl-N^2-formyl-5-methoxykynuramine]
[2]
  long-term stability: good long-term stability
other
  solubility in DMSO: soluble in DMSO
  solubility in water: insoluble in water
